{"source": "paper PMC10539439", "about": "(Pharmacological Reports, 2023)", "key": {"α1-adrenoceptor": {"target": "α1-adrenoceptor", "test": "Competitive radioligand-binding assay, [3H]prazosin", "design": "species or system rat", "method": "10 mM stock solutions of test compounds were prepared in DMSO. Serial dilutions of compounds were prepared in 96-well microplate in assay buffers using an automated pipetting system epMotion 5070 (Eppendorf, Poland). Each compound was tested in 6 concentrations of 1.0E-05 to 1.0E-10 M (final concentration).\nAffinity towards α1- and α2-adrenoceptors was evaluated using the competitive radioligand-binding assay. Experiments were conducted in the rat cerebral cortex. Radioligand [3H]prazosin (84,2 Ci/mmol, α1-adrenoceptor, PerkinElmer, Poland, NET823001MC) and [3H]clonidine (70.5 Ci/mmol, α2-adrenoceptor, PerkinElmer, Poland, NET613250UC) were used. The membrane preparation and the assay procedure were carried out accordingly as previously published. Radioactivity was counted on the MicroBeta2 scintillation counter (PerkinElmer, Poland). Data were fitted to a one-site curve-fitting equation with Prism 8 (GraphPad Software, USA), and Ki values were estimated from the Cheng–Prusoff equation."}, "α2A-adrenoceptor": {"target": "T1, α2A-adrenoceptor (Homo sapiens, UniProt P08913)", "T1 sequence (P08913 1-465)": "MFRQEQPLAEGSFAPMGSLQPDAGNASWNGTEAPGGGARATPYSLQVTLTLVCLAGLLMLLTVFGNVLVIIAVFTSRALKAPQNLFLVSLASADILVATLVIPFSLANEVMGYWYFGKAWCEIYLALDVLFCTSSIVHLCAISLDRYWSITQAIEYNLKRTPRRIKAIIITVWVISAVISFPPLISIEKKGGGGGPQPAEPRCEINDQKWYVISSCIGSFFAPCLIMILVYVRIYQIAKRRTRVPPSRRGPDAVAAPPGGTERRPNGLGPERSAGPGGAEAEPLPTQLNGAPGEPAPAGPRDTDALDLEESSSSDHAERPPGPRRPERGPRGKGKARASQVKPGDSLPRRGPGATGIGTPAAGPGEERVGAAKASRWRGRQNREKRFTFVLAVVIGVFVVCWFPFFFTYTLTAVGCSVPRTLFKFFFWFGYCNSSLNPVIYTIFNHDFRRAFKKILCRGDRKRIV", "test": "Intrinsic activity, Tango beta-lactamase reporter assay", "format": "cell-based", "method": "The intrinsic activity at α2A-adrenoceptor was assessed by the Tango assay technology that uses a mammalian-optimized beta-lactamase (bla) reporter gene combined with an FRET-enabled substrate to provide reliable and sensitive detection in cells. Cells are loaded with an engineered fluorescent substrate containing two fluorophores, coumarin, and fluorescein. In the absence of bla expression, the substrate molecule remains intact. In this state, excitation of the coumarin results in a transfer of fluorescence resonance energy to the fluorescein moiety and emission of green fluorescent light. However, in the presence of bla expression, the substrate is cleaved, separating the fluorophores and disrupting energy transfer. Excitation of the coumarin in the presence of bla enzyme activity results in a blue fluorescence signal.\nIntrinsic activity assay was performed according to the manufacturer of the assay kit (Invitrogen, Life Technologies). Cells were harvested and resuspended in an assay medium at a density of 312,500 cells/ml. 32 μL per well of cell suspension was added to the test compound wells, the unstimulated control wells, and the stimulated control wells, and incubated for 16–24 h. To perform an agonist assay, 8 μL of 5 × of agonist in the assay medium was added to the cells. […] Then, the agonist and antagonist plates were incubated in a humidified incubator at 37 °C/5% CO2 for 5 h. After the incubation, 8 μL of LiveBLAzer™-FRET B/G substrate mixture (CCF4-AM) was loaded into cells in the absence of direct strong lighting, covered, and incubated at room temperature for 2 h."}, "[1]": {"conditions": "[3H] prazosin, rat cerebral cortex, mean ± SEM, n = 3, read-out: Ki"}, "[2]": {"conditions": "ADRAA2A, agonist, concentration 1e-8"}, "[3]": {"conditions": "ADRAA2A, agonist, concentration 1e-7"}, "[4]": {"conditions": "ADRAA2A, agonist, concentration 1e-6"}}, "note": "Values joined by “and” are separate entries in the source; they are usually repeats but may differ in a detail not shown here. Equal entries are not always repeated. Where two headings read alike, the source gives them in different places.", "data": [{"smiles": "Cl.N=C(N)NN=Cc1c(Cl)cc(O)cc1Cl", "note": "[4-OH-Guanabenz, 2-[(2,6-Dichloro-4-hydroxyphenyl)methylene]hydrazinecarboximidamide Hydrochloride]", "values": [{"measurement": "Ki", "setting": "α1-adrenoceptor; [1]", "value": "3860 ± 1010", "unit": "nM"}, {"measurement": "Intrinsic activity at α2A-adrenoceptors (in words)", "setting": "α2A-adrenoceptor", "value": "Partial agonist"}, {"measurement": "% of max response", "setting": "α2A-adrenoceptor; [2]", "value": "-0.7437% and -0.7189% and -0.7313% and -0.7282%"}, {"measurement": "% of max response", "setting": "α2A-adrenoceptor; [3]", "value": "2.887% and 2.799% and 3.482%"}, {"measurement": "% of max response", "setting": "α2A-adrenoceptor; [4]", "value": "33.4463% and 31.1405% and 34.9698%"}, {"measurement": "% of max response", "setting": "α2A-adrenoceptor; ADRAA2A, agonist, concentration 1e-5", "value": "37.4215% and 35.9932% and 36.5487%"}, {"measurement": "EC50", "setting": "α2A-adrenoceptor; agonist assay", "value": 316, "unit": "nM"}, {"measurement": "activity relative to full agonist brimonidine", "setting": "α2A-adrenoceptor; agonist assay, maximal activity reached", "value": 30, "unit": "%"}, {"measurement": "Emax", "setting": "α2A-adrenoceptor; read-out: % of max response, ADRAA2A, agonist, concentration 1e-7", "value": 2.71, "unit": "%"}, {"measurement": "Emax", "setting": "α2A-adrenoceptor; read-out: % of max response, ADRAA2A, agonist, concentration 1e-6", "value": 28.8, "unit": "%"}, {"measurement": "Emax", "setting": "α2A-adrenoceptor; read-out: % of max response, ADRAA2A, agonist, concentration 1e-5", "value": 34.6, "unit": "%"}]}, {"smiles": "N=C(N)N/N=C/c1c(Cl)cccc1Cl", "note": "[Guanabenz]", "values": [{"measurement": "Ki", "setting": "α1-adrenoceptor; ADRA1, experiment 1, 2, 3, read-out: Ki, single experiments", "value": "259 nM and 250 nM and 251 nM"}, {"measurement": "Ki", "setting": "α1-adrenoceptor; [1]", "value": 253, "unit": "nM"}, {"measurement": "Affinity towards α1-adrenoceptors", "setting": "α1-adrenoceptor; summary table", "value": "+"}, {"measurement": "Intrinsic activity at α2A-adrenoceptors (in words)", "setting": "α2A-adrenoceptor", "value": "Full agonist"}, {"measurement": "% of max response", "setting": "α2A-adrenoceptor; ADRAA2A, agonist, concentration 1e-11", "value": "-0.6454% and -0.8183% and -1.252% and -0.7319%"}, {"measurement": "% of max response", "setting": "α2A-adrenoceptor; ADRAA2A, agonist, concentration 1e-10", "value": "-1.12% and -1.114% and -1.036% and -1.117%"}, {"measurement": "% of max response", "setting": "α2A-adrenoceptor; ADRAA2A, agonist, concentration 1e-9", "value": "0.5496% and 0.2076% and -0.728% and 0.3786%"}, {"measurement": "% of max response", "setting": "α2A-adrenoceptor; [2]", "value": "28.3106% and 18.1657% and 31.6251%"}, {"measurement": "Emax", "setting": "α2A-adrenoceptor; ADRAA2A, agonist, concentration 1e-8, read-out: % of max response", "value": 34.9, "unit": "%"}, {"measurement": "% of max response", "setting": "α2A-adrenoceptor; [3]", "value": "69.7622% and 66.4917% and 70.9692%"}, {"measurement": "Emax", "setting": "α2A-adrenoceptor; ADRAA2A, agonist, concentration 1e-7, read-out: % of max response", "value": 72.2, "unit": "%"}, {"measurement": "% of max response", "setting": "α2A-adrenoceptor; [4]", "value": "80.6636% and 82.7247% and 76.4282%"}, {"measurement": "Emax", "setting": "α2A-adrenoceptor; ADRAA2A, agonist, concentration 1e-6, read-out: % of max response", "value": 72.2, "unit": "%"}]}]}
